# Reference: a melting point compilation (Tetko et al.; mined from patent text by program, amines drawn as free bases though some values may be those of a salt)
row,SMILES,melting point
1,O=C1CCC(c2ccc(N=C=S)cc2)=NN1,182 to 183 °C
2,CC(CO)Nc1nc(-c2ccc(Br)cc2)cs1 (stereo not given),100 to 101 °C
3,Fc1ccc(-c2cc(Cl)c3sccc3n2)cc1,119 to 121 °C
4,OCC1OC(n2cnc3c(N4CCCC4)nc(Cl)nc32)C(O)C1O (stereo not given),229 °C
5,CS(=O)(=O)Nc1ccc(OCCCI)cc1,109 to 111 °C
6,COc1ccc(-c2c([N+](=O)[O-])cnc3ccc(Cl)cc23)c(OC)c1OC,114 to 116 °C
7,Nc1ccc(Oc2c(Cl)cc(C(F)(F)F)cc2Cl)cc1S(=O)(=O)c1cc[nH]n1,232 °C
8,CC(=O)Oc1c(C)cc(C=CC(=O)Nc2cnc3c(C)cc(C)cc3c2-c2ccccc2Cl)cc1C,207 to 208 °C
9,COc1ccc(C=NS(=O)(=O)c2ccc(C)cc2)cc1,127 °C
10,CCCOCCn1c(CN2CCN(C)CC2)nc2ccccc21,73 to 75.5 °C
11,C=CCC(Cc1ccc([N+](=O)[O-])cc1)NC(=O)OCc1ccccc1 (stereo not given),94 to 95 °C
12,CCOC(=O)c1sc(C)nc1Oc1cccc(C(F)(F)F)c1,56 °C
13,Cn1ncnc1COc1nn2cnnc2cc1-c1ccsc1,220 to 222 °C
14,Cc1nn(-c2cc3nc(S)sc3cc2F)c(=O)n1C(F)F,248 to 250 °C
15,Cc1cnc(C)c(N(CCN(C)C)C(=O)N(C)C)n1,96 to 98 °C
16,COC(=O)c1c(CC#N)c(-c2ccc3c(c2)OCO3)c2c3c(ccc2c1C)OCO3,215 to 217 °C
17,O=[N+]([O-])c1ccc(-c2ccc(C(O)CCl)o2)cc1 (stereo not given),111 to 113 °C
18,CCOC(=O)CCc1ccc2c(c1)CC(CNS(=O)(=O)c1ccc(Cl)cc1)C2 (stereo not given),90 to 93 °C
19,O=c1[nH]c2cc(F)c([N+](=O)[O-])c(Br)c2[nH]c1=O,320 to 325 °C
20,Cn1cc(-c2ccc(Cl)c(Cl)c2)c(=O)c(-c2ccccc2Cl)c1,169 to 171 °C
21,O=C1c2cccc(Sc3ccccc3)c2C(=O)c2cccc(Nc3ccc([N+](=O)[O-])cc3)c21,242 to 244 °C

row,SMILES,melting point
1,Cc1ccc(-c2nc(OC(C)C)c(Br)c(OC(C)C)n2)cc1,74 to 75 °C
2,Cc1cccc(-c2cc(C(=O)NCCCCCCCc3ccccc3)cc(-c3cccc(C)c3)c2OCC(=O)O)c1,58 to 62 °C
3,CC(C)(C)[Si](C)(C)Oc1cc(Br)c2oc(-c3ccc(O[Si](C)(C)C(C)(C)C)c(F)c3)nc2c1,98 to 99 °C
4,CN1CCN(c2cc(Cl)cc3c2c(=O)n(Cc2ccc(Cl)cc2)c(=O)n3Cc2ccccc2)CC1,92 to 97 °C
5,CC(CS)C(=O)N1CCC=C1C(=O)O (stereo not given),112 to 114 °C
6,O=c1oc(-c2cccc(S(=O)(=O)C(F)(F)F)c2)nc2ccccc12,96 to 102 °C
7,O=C(N(CCCc1ccncc1)Cc1ccccc1)N(CCCc1ccccc1)C1CCCCC1,107 to 112 °C
8,Fc1ccc(Nc2ncnc3cnc(OC4CCOCC4)nc23)cc1Cl,220 to 222 °C
9,Fc1ccc2c(c1)nc(/C=C/c1ccoc1)n2-c1ccccn1,168 to 170 °C
10,O=[N+]([O-])c1ccc(Oc2ccc3c(c2)OCC(c2ccccc2)O3)nc1 (stereo not given),163 to 170 °C
11,CN1CCN(Cc2ccc(-c3cccc(-c4cncc(C#N)c4Nc4ccc5[nH]ccc5c4)c3)s2)CC1,120 to 123 °C
12,O=[N+]([O-])c1cnc2ccc(Cl)cc2c1Cl,118 to 120 °C
13,COc1cc([N+](=O)[O-])c2c3c(c4ccccc4nc13)C=CN2,220 to 223 °C
14,CN1CCN(c2nc(=NC(=O)NC(C)(C)C)ss2)CC1,169 to 172 °C
15,CC(C)(COCc1cccc(Oc2ccccc2)c1)c1ccccc1C(=O)O,98.5 to 102 °C
16,CCOC(=O)C(C)(O)c1ccncc1F (stereo not given),56 to 60 °C
17,CCc1cc2c(-c3ccccc3Cl)c(NC(=O)Nc3ccc(F)cc3F)cnc2s1,217 to 218 °C
18,CC(C)C(=O)N[C@H](CSSC[C@@H](NC(=O)C(C)C)C(=O)O)C(=O)O,135 to 137 °C
19,O=C1c2ccccc2C(=O)N1C(CCCBr)c1ccccc1 (stereo not given),88 to 91 °C
20,CC1(C(=O)O)CC1(Br)Br (stereo not given),108 to 109 °C
21,CCOC(=O)c1nc(-c2cccc([N+](=O)[O-])c2)[nH]c1-c1ccc(OC)cc1,208 to 210 °C

# Other lines, results leading:
row,melting point,SMILES
1,161 to 162 °C,C=CCSC(=S)N1Cc2[nH]c3ccccc3c2CC1C(=O)O (stereo not given)
2,122 to 126 °C,COC(=O)c1ccc(C)c(-c2cc3cnc(NC4CCOCC4)nc3n(C)c2=O)c1
3,168 to 169 °C,COc1ccc2c(c1)C(C(=O)Nc1ccc(C(C)C)cc1)CCC2 (stereo not given)
4,130 to 132 °C,CCC(CC)n1cc(Cl)nc(N2CCc3cc(OC)cc(Br)c32)c1=O
5,234 to 236 °C,CC(=O)Nc1c(C(=O)c2ccccc2)[nH]c2cc([N+](=O)[O-])ccc12
6,218 to 219 °C,CC(=O)c1ccc2c(c1)[C@@H](N1CCCC1=O)[C@H](O)C(C)(C)O2 (relative stereo)
7,142 to 145 °C,CCOc1ccc(C2=NN(CC3CC3)C(=O)[C@H]3CC=CC[C@@H]23)cc1OCC (relative stereo)
8,297 to 299 °C,CC1CC(=O)c2c(C(=O)Nc3ccc4c(c3)OC(C)(C)O4)c[nH]c2C1 (stereo not given)
9,147 to 153 °C,CCN1C(=O)CCCc2cc(Nc3ncc(Cl)c(Nc4ccccc4S(=O)(=O)N(C)C)n3)c(OC)cc21
10,> 300 °C,CCCn1c(=O)n(C)c(=O)c2nc(-c3ccc(/C=C/C(=O)O)cc3)[nH]c21
11,280 to 282 °C,O=C1Nc2cccnc2N(C(=O)CCN2CCNCC2)c2ccccc21
12,224 to 226 °C,O=C1OCc2c1oc1cccc(F)c1c2=O
13,> 320 °C,CC(C)(C)c1csc(-c2cc3cc(CC(C(=O)O)C(=O)O)ccc3o2)n1
14,155 to 157 °C,CS(=O)(=O)c1ccc2c(c1)C(=O)CC1(CCN(C(=O)c3ccccc3)CC1)O2
15,204 to 206 °C,c1ccc2c3c([nH]c2c1)CCN(CCCCc1ccncc1)C3
16,162 to 163 °C,CC(=O)Oc1ccc(C(=O)O)cc1C(=O)c1ccccc1
17,80 to 80.5 °C,COc1ccc2c(c1)CCC1C2CCC2(C)C1CCC2N(C)CCC(C)C (stereo not given)
18,174 °C,CCN(CC)C(C)(C)CNC1(c2ccccc2Cl)C(=O)Nc2ccc(Cl)cc21 (stereo not given)
19,265 to 270 °C,O=C1c2ccc([N+](=O)[O-])cc2C(=O)N1C1CCN(C2CCCCC2)CC1
20,70 to 84 °C,Cc1ccc(OC2SCC(O)C(O)C2O)c(-c2c(C)noc2C)n1 (stereo not given)
21,255 to 256 °C,O=C1C(=O)c2ccccc2C2=C1SCC1(CCN(c3cnccn3)CC1)O2
22,65 to 66 °C,CC1CCC(Oc2cc(F)cc(C(=O)Nc3ccc(OCCN4CCOCC4)c4ccccc34)c2)C1 (stereo not given)
23,180 to 181 °C,COC(=O)c1cn2c(n1)COc1cc(C)ccc1-2
24,210 to 214 °C,Nc1ccc(C(=O)c2ccncc2)cc1N
25,153 to 156 °C,COC(=O)c1nsc2ccc(-n3c(=O)cc(C(F)(F)F)n(C)c3=O)cc12
26,144 °C,CC(C)(C)c1cc(C2N(c3ccccc3)CCN2c2ccccc2)cc(C(C)(C)C)c1O
27,197 °C,CCOC(=O)C1(C(=O)N(C)c2cccc3cc(-c4nccs4)[nH]c23)CCC1
28,126 to 128 °C,O=C(O)/C(=C\c1ccccc1)CC(=O)N1C[C@H]2CCCC[C@H]2C1
